Data: US12653860B2, “Compositions and methods for editing beta-globin for treatment of hemaglobinopathies” (Vertex Pharmaceuticals Incorporated, priority 2019, dated 2026)

Legend:
Format in all cases: cell-based
[1] = tested on: GSD1a locus in HEK293 T cells; experiment: HDR editing of GSD1a locus with ssODN homology donors; settings: FIG. 3; for HDR efficiency: 1.25 μM SCR7 or 10 μM RS-1
Description: 2×10^5 cells were edited with 1 μM Cas9 and 1.5 μM gRNA. The cells were transfected with two different ssODNs homology donors: 93-50 (SEQ ID NO: 39) or 25-100 (SEQ ID NO: 40). These two ssODN donors contain homology arms spanning both sides of the double-stranded break induced by the Cas9-guide and facilitate correction of a point mutation in the G6PC gene sequence by HDR. Cells were edited with 100 μM ssODN. The cells were treated with 2.5 μM Nu7441, 1.25 μM SCR7, or 10 μM RS-1 and the effect on HDR efficiency was evaluated.

[2] = tested on: BFP gene encoded in the AAVS1 locus of HEK293 T cells; experiment: BFP to GFP reporter assay of HDR repair (flow cytometry); settings: for HDR efficiency (improvement): 1.25 μM SCR7 or 10 μM RS-1, any ssODN construct, relative to DMSO alone
Description: An in vitro assay was conducted to determine the ability of various inhibitors and enhancers to improve the efficiency of HDR repair in HEK293 T cells. Specifically, a fluorescent reporter-based screening approach was developed to identify molecules that enhance gene-editing by HDR. A reporter system was generated in HEK293 T cells comprising a genomic AAVS1 locus that encoded either a blue fluorescent protein (BFP) or a green fluorescent protein (GFP) within the AAVS1 locus. A gene encoding BFP can be converted to a gene encoding GFP by substitution of cytosine at position 199 to uridine (e.g., a C to U transition at position 199). By introducing a DSB within the BFP gene using a CRISPR/Cas9 gene-editing system, a homology donor DNA encoding the nucleotide substitution can be used to edit the BFP gene to a GFP gene by HDR repair. Thus, a gene edit that induces a C to U transition at position 199 results in a change in cellular fluorescence. A change in the fluorescence of the cell measured by flow cytometry can be used to quantify efficiency of HDR repair. Additionally, the reverse gene edit can be performed for an AAVS1 locus encoding a GFP gene, wherein a GFP can be converted to BFP by substitution of uridine at position 199 to cytosine.
To create the reporter system, an AAV-based homology donor DNA encoding either BFP or GFP was created. The AAV-BFP or AAV-GFP donor was flanked by homology arms that were 1000 base pairs in length and expression of BFP or GFP was driven by the MND promoter (e.g., a synthetic promoter that contains the U3 region of a modified Moloney murine leukemia virus long term terminal repeat with myeloproliferative sarcoma virus enhancer and deleted negative control region, SEQ ID NO: 58). The viral DNA was packaged into capsids of adeno-associated virus serotype 6 (AAV6) vector. Either the BFP or GFP donor was introduced using the AAV6 vector into the AAVS1 locus in HEK293 T cells by homologous recombination using CRISPR-Cas9 as follows: purified Cas9 protein was complexed with two different single gRNAs (sgRNAs) targeting the AAVS1 locus at SEQ ID NO: 3 (spacer sequence identified by SEQ ID NO: 4; gRNA obtained from Maxcyte) or SEQ ID NO: 5 (spacer sequence identified by SEQ ID NO: 6; gRNA obtained from Thermo Fisher). Cas9 protein used in the Exemplary section provided herein refers to Cas9 polypeptide derived from S pyogenes (SpCas9), unless indicated otherwise.
The Cas9-sgRNA complex was electroporated into the HEK293 T cells using the Lonza Nucleofector program CM-130. Approximately, 2 hours after electroporation, the cells were infected with various viral doses of AAV6 encoding a BFP (SEQ ID NO: 44) or GFP homology donor (SEQ ID NO: 47). One week later, cells were analyzed by flow cytometry to verify integration and expression of BFP or GFP in the AAVS1 locus. HEK293 T cells expressing BFP or GFP were sorted into single cells in 96-well plates. After −2 weeks of growth, DNA extracted from individual cells was analyzed for precise integration of the respective BFP or GFP gene into the AAVS1 locus by long-range PCR. This PCR analysis allowed for determination of whether the BFP/GFP gene was integrated in one or both alleles of the AAVS1 locus.
To introduce a gene edit that converts BFP to GFP, cells were electroporated with ribonucleoprotein (RNP) comprised of Cas9 and sgRNA that targets the BFP gene encoded in the AAVS1 locus. The sgRNA targeted a sequence in the BFP gene identified by SEQ ID NO: 7 (sgRNA spacer sequence identified by SEQ ID NO: 8). The sgRNA were prepared using a standard sgRNA cassette specific to SpCas9, as indicated by SEQ ID NO: 2 (wherein a, c, g, u represent 2′ O-methyl phosphorothioate nucleotides; s represents phosphorothioate nucleotides; and A, C, G, U, N represent canonical RNA nucleotides). The gRNAs used in the Exemplary section provided herein were sgRNAs prepared with the SpCas9 sgRNA cassette unless indicated otherwise. […]

[3] = tested on: GFP gene encoded in the AAVS1 locus of HEK293 T cells; experiment: Indel formation by TIDE analysis, GFP to BFP edit; settings: regardless of ssODN or gRNA; vs DMSO control; FIGS. 2C-2D
Description: The effect of DNA PK inhibition by Nu7441 correction of a DSB by the NHEJ pathway (e.g., introduce an indel at the DSB site) or HDR pathway (e.g., introduce a gene mutation encoded by a homology donor at the DSB site) was assessed using the reporter system described in Example 1. In this case gene-editing was evaluated in HEK293 T cells expressing GFP in the AAVS1 locus. To introduce a gene edit that converts GFP to BFP, cells were electroporated with ribonucleoprotein (RNP) comprised of Cas9 and gRNA1 (GFP target sequence identified by SEQ ID NO: 9; sgRNA spacer sequence identified by SEQ ID NO: 10) or gRNA2 (GFP target sequence identified by SEQ ID NO: 11; sgRNA spacer identified by SEQ ID NO: 12) that targets the GFP gene encoded in the AAVS1 locus. The cells were also transfected with ssODNs that encoded the gene correction necessary to convert GFP to BFP and homology arms complimentary to the sequence upstream and downstream of the target gene cut site. The efficiency of HDR repair was determined by measuring the level of cell BFP fluorescence. The efficiency of cutting (indel information) was monitored by TIDE analysis.
Shown in FIGS. 2C-2D is a measure of indel formation performed by TIDE analysis for the same edits that are described for FIGS. 2A-2B. […] Thus, the DNA PK inhibitor Nu7441 achieves reduced repair of a DSB by the NHEJ pathway when a homology donor is provided.

Compound	HDR efficiency, fold increase over DMSO alone ([1]; 2.5 μM Nu7441, ssODN 93-50 or 25-100)	HDR efficiency, fold higher ([2]; 2.5 μM Nu7441, each of four ssODN constructs, FIG. 1A)	HDR efficiency, high vs low concentration ([2]; 2.5 μM vs 0.6 μM Nu7441, FIG. 1B, 1C)	HDR efficiency at higher concentrations ([2]; concentrations of Nu7441 higher than 2.5 μM)	indel formation at the DSB site [3]	HDR efficiency [1]	HDR efficiency (improvement) ([2]; FIG. 1A)	HDR efficiency ([2]; different doses of mRNA encoding i53, ssODNs Hn-91-61 and Ht-39-88, FIG. 1D)
O=c1cc(N2CCOCC2)oc2c(-c3cccc4c3sc3ccccc34)cccc12 [Nu7441]	approximately 1.7 fold	approximately 3 fold	approximately 1.5 fold	no further improvement in HDR efficiency	decreased indel formation	–	–	–
O=C(Nc1ccc(Br)cc1)c1ccc(Br)c(S(=O)(=O)NCc2ccccc2)c1 [RS-1]	–	–	–	–	reduction compared to a DMSO control	no effect	no improvement in HDR efficiency	–
O=c1[nH]c(=S)[nH]c(N=Cc2ccccc2)c1N=Cc1ccccc1 [SCR7]	–	–	–	–	reduction compared to a DMSO control	no effect	no improvement in HDR efficiency	–
i53: polypeptide inhibitor of 53BP1 (SEQ ID NO: 70), delivered as mRNA (ORF SEQ ID NO: 69)	–	–	–	–	–	–	–	HDR efficiency increased
